Data: patent US7361660B2, “Chemical compounds” (AstraZeneca AB, priority 2001, dated 2008)

Tested on: peripheral blood mononuclear cell (PBMC)
Assay: Inhibition of PMA/ionomycin-stimulated peripheral blood mononuclear cell proliferation
Type: cell-based
Conditions: human PBMC from a single donor, PMA 0.5 ng/ml and ionomycin 500 ng/ml, 72 hours, 3H-Thymidine incorporation; read-out: IA50 (the source's name)
Method: The ability of compounds which can inhibit PMA/ionomycin-stimulated peripheral blood mononuclear cell proliferation can be assessed, for example using the procedure set out below:
Inhibition of PMA/Ionomycin-Stimulated Peripheral Blood Mononuclear Cell Proliferation
The assay for Phorbol 12-myristate 13-Acetate (PMA)/ionomycin-stimulated peripheral blood mononuclear cell (PBMC) proliferation was performed in 96-well flat bottomed microtitre plates. Compounds were prepared as 10 mM stock solutions in dimethyl sulfoxide. A 50-fold dilution of this was prepared in RPMI culture medium and serial diutions were prepared from this solution. 10 μl of the 50-fold diluted stock, or dilutions of it, were added to the well to give concentrations in the assay starting at […] and going down. Into each well was placed 1×10^5 PBMC, prepared from human peripheral blood from a single donor, in RPMI1640 medium supplemented with 10% human serum, 2 mM glutamine and penicillin/streptomycin. PMA (0.5 ng/ml final concentration) and ionomycin (500 ng/ml final concentration) were added to these cells in supplemented RPMI1640 medium (as above) so that the final volume of the assay was 0.2 ml. […] The level of radioactivity incorporated by the cells was then determined and this is a measure of proliferation.

SMILES: CON(C)C(=O)c1c(Cc2ccnc3ccccc23)sc2c1c(=O)n(C)c(=O)n2CC(C)C [Example 2, 1,2,3,4-Tetrahydro-N-methoxy-N,3-dimethyl-1-(2-methylpropyl)-2,4-dioxo-6-(4-quinolinylmethyl)thieno[2,3-d]pyrimidine-5-carboxamide]
- IC50: 5.88 nM

SMILES: CCCn1c(=O)n(C)c(=O)c2c(C(=O)N(C)OC)c(Cn3c(C)nc(Cl)c3Cl)sc21 [Example 7, 6-[4,5-Dichloro-2-methyl-1H-imidazol-1-ylmethyl]-1,2,3,4-tetrahydro-N-methoxy-N,3-dimethyl-2,4-dioxo-1-propyl-thieno[2,3-d]pyrimidine-5-carboxamide]
- IC50: 34.6 nM
